Source: US10265383B2, “Treatment of radiation injury using ghrelin” (priority 2014, dated 2019)
Where no end group is shown, it is not given here. The star is where a group is joined. Octanoyl = CCCCCCCC(=O)*

Experiments:
rat ileum = experiment: Gut permeability, ex-vivo isolated everted ileal sac (FD4 clearance); type: in vivo; settings: Day 7 after 10 Gy WBI, 20 nmol/rat for 6 days from 24 h
Experimental: (§1) Animal model of whole body irradiation. Rats were exposed to whole body irradiation (WBI) of 10 Gray (Gy) using a Gammacell® 1000 Irradiator (Atomic Energy of Canada Ltd) [radiation source: Cesium-137 (^137Cs)] delivered at a dose rate of about 2.5 GY/min. The animals were sedated with intra-peritoneal pentobarbital (40 mg/kg BW) prior to irradiation. During radiation, the container rotated continuously in front of the radiation source for even exposure. The animals were then returned to their cages, and food and water were provided.
(§2) Blood and Tissue Collection after WBI. Rats exposed to 10 Gy WBI were treated with 20 nmol/rat human ghrelin once a day for 6 days starting at 24 h after radiation. […]
Gut Permeability. Small intestinal mucosal barrier function was assessed by using the ex-vivo isolated everted ileal sac as originally described by Wattanasirichaigoon et al. in 1999 [26] and used by others. […] The length and the diameter of the gut sac were then measured. […] Fluorescence measurements were made with a CYTOFLUOR 2 fluorescence plate reader (PerSeptive Biosystems, Framingham, Mass.) at an excitation wavelength of 480 nm and an emission wavelength of 520 nm. Gut permeability was expressed as the mucosal-to-serosal clearance of FD4 as described in detail by Wattanasirichaigoon et al.. […]

serum endotoxin = experiment: Serum endotoxin levels (LAL assay); type: in vivo; settings: Day 7 after 10 Gy WBI; 20 nmol/rat for 6 days from 24 h
Experimental: as §1
Blood and Tissue Collection after WBI. Rats exposed to 10 Gy WBI were treated with 20 nmol/rat human ghrelin once a day for 6 days starting at 24 h after radiation. At the 7th day, rats were euthanized, and blood, liver and the small intestine were removed under sterile conditions. The blood was allowed to clot and following centrifugation, the serum was transferred into pyrogenic free sterile tubes, and stored at −80° C. until further analysis. […]
Serum endotoxin levels. Bacterial endotoxin levels in the serum were determined by the endpoint Chromogenic Limulus Amebocyte Lysate (LAL) assay (QC-1000, Lonza, Walkervilles, Md. USA) and expressed in EU/ml. Samples were analyzed according to manufacturer's instruction. Endotoxin levels which are ≥0.1EU/ml can be measured using this assay.

Liver 16S rRNA = experiment: Bacterial translocation, liver 16S rRNA real time PCR; type: in vivo; settings: Day 7 after 10 Gy WBI; 20 nmol/rat for 6 days from 24 h
Experimental: as §1, §2
DNA isolation and total bacteria quantification. […] Bacterial quantification was performed using 16S rRNA gene-targeted primer, forward: 5′-AAC GCG AAG AAC CTT AC-3′ (SEQ ID NO:2) and reverse: 5′-CGG TGT GTA CAA GAC CC-3′ (SEQ ID NO:3). […] The PCR conditions for total bacterial quantification were 95° C. for 1 min and 40 cycles of 95° C. for 20 sec and 60° C. for 1 min. […] Serially diluted genomic DNA of bacterial isolates was used as real time PCR control for bacterial quantification. A standard curve was generated from the bacterial DNA control and we consistently detected between 100 ng to 0.1 pg E. coli DNA. Bacterial counts were expressed as ng/mg liver tissue.

Bax = experiment: Western blot of jejunal Bax protein; type: in vivo, rat; settings: jejunum, Day 7 after 10 Gy WBI; slightly elevated in vehicle
Experimental: as §1
(§3) Blood and Tissue Collection after WBI. Rats exposed to 10 Gy WBI were treated with 20 nmol/rat human ghrelin once a day for 6 days starting at 24 h after radiation. At the 7th day, rats were euthanized, and blood, liver and the small intestine were removed under sterile conditions. […]
(§4) Western blot analysis. […] After overnight incubation with the primary antibodies at 4° C., the membranes were washed with TBS-T Immunoreactive bands were detected using HRP-linked secondary antibody (Southern Biotech, Birmingham, Ala.) and the Enhanced Chemiluminescence (ECL) Western blot detection kit (Amersham, Piscataway, N.J.). The immunoblots were exposed to X-ray film and analyzed with the NIH Image J analysis system. […]

pAkt = experiment: Western blot of jejunal pAkt expression; type: in vivo, rat; settings: jejunum, Day 7 after 10 Gy WBI; versus vehicle
Experimental: as §1, §3, §4

Question: With “ghrelin (GSS(Octanoyl)FLSPEHQRVQQRKESKKPPAKLQPR; listed as Homo sapiens) [human ghrelin]” as the substance, how does the “gut permeability, reduction from Vehicle” value (rat ileum) read?
Answer: 38%

Question: And the “serum endotoxin levels, decrease” value (serum endotoxin)?
Answer: 42%

Question: What about the “liver 16S rRNA gene (bacterial counts), reduction from Vehicle” value (Liver 16S rRNA) of the same substance?
Answer: 61%

Question: What about the Bax protein (Bax) of the same substance?
Answer: remain same as sham

Question: What about the “intestinal pAkt expression” value (pAkt) of the same substance?
Answer: further significantly increased
